Key:
MAP4K1 (HPK1) = target: T1, MAP4K1 (HPK1) (Homo sapiens, UniProt Q92918); assay: Inhibition of MAP4K1 biochemical enzymatic activity (EZReader 2 electrophoretic mobility shift assay); details: HPK1 (Invitrogen), S6K2tide 1.5 μM, 120 min; ATP 26 μM or 1000 μM (not stated which)
T1 construct: purchased Invitrogen
In short: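 Mobility-shift assay: 0.1-15 nM enzyme, 1.5 μM fluorescent peptide, 20-1000 μM ATP (apparent Km or 1 mM) in HEPES pH 7.5, MgCl2, DTT, Brij 35; 60-180 min at 25° C, 1% DMSO. Ten-point 4-fold compound series in duplicate; EDTA-stopped, product/substrate peak ratio read.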

Primary T Cell = assay: T cell enhancement of cytokines: IL2 measurement (HTRF) in expanded CD3+ T cells stimulated with anti-CD3/anti-CD28; assay type: cell-based, human; details: Homo sapiens, T-cell, 24 h, plate-bound anti-CD3 and soluble anti-CD28, 24 h, read-out: IL-2 Primary T Cell EC50
Method: T cells are isolated from whole blood of healthy donors by immunomagnetic negative selection following manufacture's protocol (StemCell Technologies, human T cell isolation kit). Purity of isolated cells is assessed by flow cytometry and yields 95-98% CD3^+ T cells. For expansion of T cells, 1×10^6 cells/well are plated in serum free cell expansion media (ThermoFisher) containing 30U of recombinant human IL2 (R&D) and stimulated with 25 ul of CD3/CD28 beads (Invitrogen) in 24 well plates for 3-4 days. T cells are then expanded in 175 cm flasks and maintained at a cell density of 1 to 2.5×10^6 cells/ml days by addition of ⅔ of fresh media every 2-3 days. After 10-14 days, cells are frozen in BamBanker freezing media (Thermo) and stored in liquid nitrogen.
For IL2 measurement, expanded CD3+ T cells are dispensed at 100K cells/well (cultured in X-VIVO 10 Serum-free media) and are stimulated with plate-bound anti-CD3 and soluble anti-CD28 in the presence of vehicle or compound of the disclosure at various concentrations for 24 h. As outlined in the manufacturer's protocol (Cisbio), 16 μL of conditioned media is transferred to a white 384-well low volume plate. Following a 24 h incubation with the anti-IL2 antibodies, the homogenous time resolved fluorescence (HTRF) is measured.

T1 sequence (Q92918 whole entry): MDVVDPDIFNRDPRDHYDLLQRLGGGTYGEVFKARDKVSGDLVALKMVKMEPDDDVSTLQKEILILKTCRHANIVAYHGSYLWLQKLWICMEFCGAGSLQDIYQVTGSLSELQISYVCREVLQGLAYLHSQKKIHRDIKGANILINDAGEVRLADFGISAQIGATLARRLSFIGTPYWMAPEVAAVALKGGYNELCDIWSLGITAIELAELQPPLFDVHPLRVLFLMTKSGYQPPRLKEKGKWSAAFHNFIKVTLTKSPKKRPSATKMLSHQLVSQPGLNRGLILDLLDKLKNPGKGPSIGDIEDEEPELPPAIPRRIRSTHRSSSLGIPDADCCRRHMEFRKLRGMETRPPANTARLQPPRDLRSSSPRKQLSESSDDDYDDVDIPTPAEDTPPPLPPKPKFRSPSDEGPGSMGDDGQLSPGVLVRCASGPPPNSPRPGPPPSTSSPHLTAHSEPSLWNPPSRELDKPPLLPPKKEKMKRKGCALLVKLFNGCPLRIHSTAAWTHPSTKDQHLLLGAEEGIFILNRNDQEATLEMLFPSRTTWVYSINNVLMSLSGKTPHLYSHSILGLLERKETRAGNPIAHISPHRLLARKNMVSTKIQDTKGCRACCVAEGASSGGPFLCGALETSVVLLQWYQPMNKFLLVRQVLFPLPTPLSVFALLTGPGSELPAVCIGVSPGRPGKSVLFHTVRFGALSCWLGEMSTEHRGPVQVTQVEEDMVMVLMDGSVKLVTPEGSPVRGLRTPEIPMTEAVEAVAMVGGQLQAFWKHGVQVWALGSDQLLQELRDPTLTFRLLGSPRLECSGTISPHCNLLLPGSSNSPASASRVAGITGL

Compound	IC50 (MAP4K1 (HPK1)) [nM]	EC50 (Primary T Cell) [nM]
C[C@@H]1c2nc(Nc3cc4c(C(C)(C)N)cnc(OC5CN(C(=O)N6CC(F)C6)C5)c4cn3)ccc2C(=O)OC1(C)C [Compound 95]	0.22	19.8
C[C@@H]1c2nc(Nc3cc4c(C(C)(C)N)cnc(O[C@H]5C[C@@H](C(=O)N6CC(F)(F)C6)C5)c4cn3)ccc2C(=O)OC1(C)C [Compound 100]	0.11	22.1
C[C@@H]1c2nc(Nc3cc4c(C(C)(C)N)cnc(OC5CN(C(=O)N6CC(F)(F)C6)C5)c4cn3)ccc2C(=O)OC1(C)C [Compound 101]	0.13	17.8
C[C@@H]1OC(=O)c2ccc(Nc3cc4c(C(C)(C)N)cnc(OC5CN(C(=O)C6(C(F)(F)F)CC6)C5)c4cn3)nc2[C@H]1C [Compound 102]	0.12	24
CC[C@@](C)(N)c1cnc(OC2CN(C(C)=O)C2)c2cnc(Nc3ccc4c(n3)C(C)(C)COC4=O)cc12 [Compound 111]	0.43	9.6
CCC(=O)N1C[C@@H](Oc2ncc(C(C)(C)N)c3cc(Nc4ccc5c(n4)[C@@H](C)C(C)(C)OC5=O)ncc23)[C@@H]1C [Compound 118]	0.17	17.7
COC[C@@](C)(N)c1cnc(O[C@@H]2CN(C(C)=O)[C@H]2C)c2cnc(Nc3ccc4c(n3)[C@@H](C)[C@H](C)OC4=O)cc12 [Compound 119]	0.2	90
CCC(=O)N1CC(Oc2ncc([C@](C)(N)COC)c3cc(Nc4ccc5c(n4)[C@@H](C)[C@H](C)OC5=O)ncc23)C1 [Compound 120]	0.25	29.4
COC[C@@](C)(N)c1cnc(OC2CN(C(=O)OC)C2)c2cnc(Nc3ccc4c(n3)[C@@H](C)[C@H](C)OC4=O)cc12 [Compound 121]	0.2	41.5
COC[C@@](C)(N)c1cnc(OC2CN(C(C)=O)[C@H]2C)c2cnc(Nc3ccc4c(n3)[C@@H](C)C(C)(C)OC4=O)cc12 (stereo partly drawn) [Compound 122]	0.12	53.7
CCC(=O)N1CC(Oc2ncc([C@](C)(N)COC)c3cc(Nc4ccc5c(n4)[C@@H](C)C(C)(C)OC5=O)ncc23)C1 [Compound 123]	0.1	60.8
COC[C@@](C)(N)c1cnc(OC2CN(C(=O)OC)C2)c2cnc(Nc3ccc4c(n3)[C@@H](C)C(C)(C)OC4=O)cc12 [Compound 125]	0.17	130
